This is an account of results in publication PMC7854685, “Histone Parylation factor 1 contributes to the inhibition of PARP1 by cancer drugs” (Nature Communications, 2021).

SMILES strings stand for the structures. “And” between values parts separate entries of the source, which are not always exact repeats. Identical values can stand only once. “Also recorded” adds a separate entry of the source. Like-named read-outs stand apart in the source and are kept apart here. Marks after values point to notes of the source that are not given here.

In assay [1] the target is T1, PARP1 (Homo sapiens, UniProt P09874). The experiment in a line: Release of fluorescently labeled p18mer DNA (fluorescence polarization) upon NAD+ addition, KI determination for PARPi, with or without HPF1. The arrangement: Wild-type PARP1 and PARP2 were expressed and purified as previously described; made in house. The class given is biochemical. A general note: Polarisation of emitted light reports the rotation of a fluorescent probe.
T1 sequence (P09874 whole entry): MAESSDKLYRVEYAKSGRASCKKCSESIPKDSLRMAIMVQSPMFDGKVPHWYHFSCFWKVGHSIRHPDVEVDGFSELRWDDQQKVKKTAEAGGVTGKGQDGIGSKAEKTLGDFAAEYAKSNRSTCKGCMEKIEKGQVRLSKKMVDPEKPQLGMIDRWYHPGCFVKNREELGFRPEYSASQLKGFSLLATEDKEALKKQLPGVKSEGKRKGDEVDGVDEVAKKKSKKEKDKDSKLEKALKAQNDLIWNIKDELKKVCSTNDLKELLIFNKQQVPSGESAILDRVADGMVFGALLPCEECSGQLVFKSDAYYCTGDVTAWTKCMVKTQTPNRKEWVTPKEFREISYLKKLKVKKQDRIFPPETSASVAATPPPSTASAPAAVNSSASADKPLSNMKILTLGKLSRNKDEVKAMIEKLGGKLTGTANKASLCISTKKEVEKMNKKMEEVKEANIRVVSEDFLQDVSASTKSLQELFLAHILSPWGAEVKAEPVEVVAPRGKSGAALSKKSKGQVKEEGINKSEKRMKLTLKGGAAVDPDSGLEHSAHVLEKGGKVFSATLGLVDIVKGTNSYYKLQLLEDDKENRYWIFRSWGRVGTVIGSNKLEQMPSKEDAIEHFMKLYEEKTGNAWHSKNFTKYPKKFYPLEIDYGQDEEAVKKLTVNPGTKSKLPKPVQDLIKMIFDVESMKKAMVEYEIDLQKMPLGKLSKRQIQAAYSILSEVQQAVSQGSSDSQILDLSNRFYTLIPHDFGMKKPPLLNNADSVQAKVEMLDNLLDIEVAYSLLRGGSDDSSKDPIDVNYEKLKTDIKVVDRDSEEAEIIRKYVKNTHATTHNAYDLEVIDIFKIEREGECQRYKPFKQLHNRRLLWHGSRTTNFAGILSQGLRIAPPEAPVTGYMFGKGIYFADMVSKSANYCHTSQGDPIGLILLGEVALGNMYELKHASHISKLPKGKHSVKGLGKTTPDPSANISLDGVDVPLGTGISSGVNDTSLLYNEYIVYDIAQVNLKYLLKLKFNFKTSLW
Description: (§1) Starting with a complex of PARP1 or PARP2 bound to a PARPi and fluorescently labeled DNA, we monitor the loss of fluorescence polarization upon addition of high concentrations of NAD^+ (2 mM) as the labeled DNA is released from the PARylated PARPs (Fig. 1a).
(§2) Intuitively one might expect the observed rate of release of labeled DNA to reflect the slow dissociation of PARPi from the complex (koff; see Fig. 1a). However, the kinetics are actually more complex as there is competition between the inhibitor re-binding (kon[I]) and the binding of, and reaction with, NAD^+ (k2[NAD^+]) (Fig. 1a).
(§3) Next, 10 µL of PARP1 or PARP2 (10 nM) premixed with fluorescein labeled p18mer DNA (5 nM), was added to the various dilutions of PARPi and then incubated for 30 min to ensure complete association. Dissociation of labeled DNA was initiated by addition of 10 µL of NAD^+ (2 mM). […] We emphasize that the same correction is applied to the data for all PARPi. […] We can use the KI (derived from the slope of the replot, Fig. 2) and the minimal koff to calculate a minimal kon (KI = koff/kon, Supplementary Table 2).

The target of assay [2] is T2, PARP2 (Homo sapiens, UniProt Q9UGN5).
T2 construct: Wild-type PARP1 and PARP2 were expressed and purified as previously described; made in house
T2 sequence (Q9UGN5 whole entry): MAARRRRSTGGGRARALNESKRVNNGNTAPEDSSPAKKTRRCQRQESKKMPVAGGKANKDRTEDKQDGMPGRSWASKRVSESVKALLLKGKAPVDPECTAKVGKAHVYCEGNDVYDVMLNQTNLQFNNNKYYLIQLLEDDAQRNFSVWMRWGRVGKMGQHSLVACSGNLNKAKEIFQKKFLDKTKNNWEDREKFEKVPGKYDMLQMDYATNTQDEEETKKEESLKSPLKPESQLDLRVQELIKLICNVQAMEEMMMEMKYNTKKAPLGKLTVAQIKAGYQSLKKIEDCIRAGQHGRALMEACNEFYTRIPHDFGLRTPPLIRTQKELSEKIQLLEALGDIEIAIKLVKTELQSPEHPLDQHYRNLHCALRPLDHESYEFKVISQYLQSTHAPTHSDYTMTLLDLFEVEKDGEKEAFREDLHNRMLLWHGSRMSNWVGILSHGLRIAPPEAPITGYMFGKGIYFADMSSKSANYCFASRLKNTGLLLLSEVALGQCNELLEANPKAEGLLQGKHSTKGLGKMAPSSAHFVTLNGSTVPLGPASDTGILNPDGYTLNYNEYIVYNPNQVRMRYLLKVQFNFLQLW
The description is as above. The class given is biochemical.
Description: as §1, §2, §3

Assay [3] has as its target T1, PARP1. Particulars: cited from earlier work.
Assay [4] addresses T1, PARP1. Put plainly: Fluorescence polarization association/dissociation of fl-Ola, with p18mer or Nuc165, with or without HPF1. The class given is binding. The arrangement: Wild-type PARP1 and PARP2 were expressed and purified as previously described; made in house; on rate (observed, single run): unit not given here.
In assay [5] the target is T2, PARP2. Described as above. The format is binding. On the set-up: On (individual replicates): unit not given here.
Where [6] appears, read: PARP1, +HPF1, single experiment.
The mark [7] stands for this setting: PARP1, without HPF1, single experiment.
Where [8] appears, read: PARP2, +HPF1, single experiment.
Setting [9] is: PARP2, without HPF1 (apo), single experiment.

Broadly, the Ki is a dissociation constant, usually derived from enzyme kinetics or from competition with a known ligand. What is called Kd is the free concentration of one partner at which half of the binding sites on the other are occupied at equilibrium, for simple one-to-one binding.
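Throughout, for Fold (t-test): PARP1 bound to fluorescein-tagged DNA and preincubated with inhibitor, then high NAD+ added, drop in fluorescence polarization tracked as the DNA dissociates.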
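Throughout, for KI: PARP1 bound to fluorescein-tagged DNA and preincubated with inhibitor, then high NAD+ added, drop in fluorescence polarization tracked as the DNA dissociates.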
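Throughout, for Kd: fluorescence polarization read every minute over 1000 min, association and dissociation traces fitted to a single exponential.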
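Throughout, for Ki average: PARP1 bound to fluorescein-tagged DNA and preincubated with inhibitor, then high NAD+ added, drop in fluorescence polarization tracked as the DNA dissociates.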
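Throughout, for Off (individual replicates): fluorescence polarization read every minute over 1000 min, association and dissociation traces fitted to a single exponential.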
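Throughout, for On (individual replicates): fluorescence polarization read every minute over 1000 min, association and dissociation traces fitted to a single exponential.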
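Throughout, for On average: fluorescence polarization read every minute over 1000 min, association and dissociation traces fitted to a single exponential.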
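Throughout, for koff (est) average: PARP1 bound to fluorescein-tagged DNA and preincubated with inhibitor, then high NAD+ added, drop in fluorescence polarization tracked as the DNA dissociates.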
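Throughout, for slope: slope of the inhibitor-concentration replot from which KI is derived.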

Turning to `NC(=O)c1cccc2[nH]c(-c3ccc([C@@H]4CCCN4)cc3F)nc12` [A-966492], the t1/2est average is 38.5 min at PARP1 [1] (PARP1, +HPF1, average) and 4.58 min on PARP1 [1] (PARP1, without HPF1, average). The slope was 149 s/nM and 124 s/nM and 110 s/nM at PARP1 [1] (setting [6]); 34.7 s/nM and 49.9 s/nM and 38.6 s/nM on PARP1 [1] (setting [7]). For the same compound, the t1/2est is 39 min and 37.5 min on PARP1 [1] (setting [6]); 4.75 min and 4.5 min at PARP1 [1] (setting [7]).
On to `COC1CCN(C(=O)c2cc(Cc3n[nH]c(=O)c4ccccc34)ccc2F)CC1` [AZD-2461], for which the “Fold (t-test)” value on PARP1 [1] (PARP1, fold-difference in Ki caused by the addition of HPF1) is on record as 2.9 ** fold. The inhibitory constant (Ki) at PARP1 [1] (PARP1 alone, p18mer DNA, 2 mM NAD+, read-out: Ki) came out at 2.2 ± 0.6 nM.
As to `COC1CCN(C(=O)c2cc(Cc3n[nH]c(=O)c4ccccc34)ccc2F)CC1` [AZD], the “koff (est) average” value is at least 0.00058 s⁻¹ at PARP1 [1] (PARP1, +HPF1, average) and at least 0.00295 s⁻¹ at PARP1 [1] (PARP1, without HPF1, average). Also, the t1/2est average at PARP1 [1] (PARP1, +HPF1, average) stood at 20.75 min; on PARP1 [1] (PARP1, without HPF1, average), 4.72 min. For the same compound, the Ki on PARP1 [1] (PARP1, +HPF1, average, read-out: Ki average) is 0.78 nM; at PARP1 [1] (PARP1, +HPF1, single experiment, read-out: Ki) it was 0.82 nM and 0.78 nM and 0.6 nM and 0.93 nM; at PARP1 [1] (PARP1, without HPF1, average, read-out: Ki average) it was 2.23 nM; on PARP1 [1] (PARP1, without HPF1, single experiment, read-out: Ki) it was 2.96 nM and 1.69 nM and 1.76 nM and 1.73 nM and 2.72 nM and 2.53 nM. For the same compound, the slope is 49 s/nM and 51 s/nM and 67.1 s/nM and 43 s/nM at PARP1 [1] (setting [6]); 9.4 s/nM and 16.4 s/nM and 15.8 s/nM and 16.1 s/nM and 10.2 s/nM and 11.0 s/nM at PARP1 [1] (setting [7]). In addition, the t1/2est at PARP1 [1] (setting [6]) was 17 min and 20 min and 29 min. In addition, the kon ratio at PARP1 [1] (PARP1, ratio of averages with and without HPF1) is 1.75. Further, the Ki ratio at PARP1 [1] (PARP1, ratio of averages without and with HPF1) stood at 2.85.
In the case of `NC(=O)c1cccc2cn(-c3ccc([C@@H]4CCCNC4)cc3)nc12` [Nira], the t1/2est average at PARP1 [1] (PARP1, +HPF1, average) was determined as 28.33 min; at PARP1 [1] (PARP1, without HPF1, average), 8.7 min. In addition, the slope at PARP1 [1] (setting [6]) is 60.3 s/nM and 61 s/nM and 66.7 s/nM. Also, the t1/2est on PARP1 [1] (setting [6]) is 29 min and 28 min; on PARP1 [1] (setting [7]) it was 5.5 min and 11 min and 9.5 min and 8 min.
On to `O=C(c1cc(Cc2n[nH]c(=O)c3ccccc23)ccc1F)N1CCN(C(=O)C2CC2)CC1` [Olaparib], for which, on PARP2 [2], the t1/2est was 4.17 min and 4.5 min and 3 min and 5.5 min and 4 min and 2.83 min; the t1/2est average was 4.05 min and 4.08 min.
As for `CNCc1ccc(-c2[nH]c3cc(F)cc4c3c2CCNC4=O)cc1` [Rucaparib], the t1/2est average at PARP1 [1] (PARP1, +HPF1, average) stood at 250 min; at PARP1 [1] (PARP1, without HPF1, average), 57.5 min. Besides, the t1/2est at PARP1 [1] (setting [6]) stood at 250 min. For the same compound, the PARP-trapping entry on PARP1 [3] was “strong”.
As for `Cn1ncnc1[C@H]1c2n[nH]c(=O)c3cc(F)cc(c23)N[C@@H]1c1ccc(F)cc1` [Tala], the t1/2est average on PARP1 [1] (PARP1, +HPF1, average) was over 333.33 min; on PARP1 [1] (PARP1, without HPF1, average) it was 121.7 min; on PARP2 [2] (PARP2, +HPF1, average), 9.17 min; at PARP2 [2] (PARP2, without HPF1, average), 6.83 min. Further, the t1/2est was 333.33 min on PARP1 [1] (setting [6]); 138.5 min and 95.83 min and 118.5 min and 134 min at PARP1 [1] (setting [7]); 11 min and 10 min and 6.5 min on PARP2 [2] (setting [8]); 7.5 min and 6.5 min on PARP2 [2] (setting [9]). Besides, the slope on PARP1 [1] (setting [7]) is 1743 s/nM and 2697 s/nM and 2953 s/nM and 2451 s/nM; at PARP2 [2] (setting [8]), 91 s/nM and 65 s/nM; at PARP2 [2] (setting [9]), 180 s/nM and 131 s/nM and 191 s/nM.
`C[C@]1(c2nc3c(C(N)=O)cccc3[nH]2)CCCN1` [Veliparib]: on PARP1 [3], the PARP-trapping entry is on record as “weak”.
As for `CC1=CC(C)=[N+]2C1=Cc1ccc(CCC(=O)N3CCN(C(=O)c4cc(Cc5n[nH]c(=O)c6ccccc56)ccc4F)CC3)n1[B-]2(F)F` [fl-Ola], the “off rate (single run)” value on PARP1 [4] (PARP1, Nuc165) is 0.004215 per min and 0.004911 per min and 0.004071 per min and 0.00473 per min and 0.004639 per min; at PARP1 [4] (PARP1, Nuc165+HPF1), 0.001434 per min and 0.001853 per min and 0.001613 per min and 0.002575 per min and 0.002863 per min; on PARP1 [4] (PARP1, buffer) it was 0.001297 per min and 0.001272 per min and 0.001404 per min and 0.001129 per min; at PARP1 [4] (PARP1, p18mer) it was 0.005934 per min and 0.004771 per min and 0.005583 per min and 0.004919 per min and 0.005548 per min; at PARP1 [4] (PARP1, p18mer+HPF1), 0.002334 per min and 0.002172 per min and 0.002936 per min and 0.003134 per min and 0.003344 per min. The on rate average is 2.17 per uM per sec on PARP1 [4] (PARP1, Nuc165); 4.35 per uM per sec at PARP1 [4] (PARP1, Nuc165+HPF1); 0.39 per uM per sec on PARP1 [4] (PARP1, buffer); 1.27 per uM per sec at PARP1 [4] (PARP1, p18mer); 1.95 per uM per sec on PARP1 [4] (PARP1, p18mer+HPF1). Moreover, the “on rate (observed, single run)” value on PARP1 [4] (PARP1, Nuc165+HPF1) is 0.03904 and 0.05638 and 0.0311 and 0.04561 and 0.04092 and 0.03175 and 0.05953; on PARP1 [4] (PARP1, buffer), 0.002763 and 0.003297 and 0.003517 and 0.004488 and 0.003954 and 0.005011 and 0.004368 and 0.00415; at PARP1 [4] (PARP1, p18mer+HPF1), 0.02205 and 0.01731 and 0.01849 and 0.01852 and 0.01515 and 0.01847 and 0.02629. The “Off (individual replicates)” value at PARP2 [5] (PARP2, Nuc147) is 0.000128 per sec and 0.000098 per sec and 0.000096 per sec and 0.000087 per sec; on PARP2 [5] (PARP2, Nuc147/HPF1), 0.000060 per sec and 0.000066 per sec and 0.000047 per sec; on PARP2 [5] (PARP2, p18mer) it was 0.000127 per sec and 0.000133 per sec and 0.000111 per sec and 0.000117 per sec; at PARP2 [5] (PARP2, p18mer/HPF1) it was 0.000135 per sec and 0.000112 per sec and 0.000093 per sec. The “On (individual replicates)” value is 0.06047 and 0.0458 and 0.0509 and 0.06962 on PARP2 [5] (PARP2, Nuc147); 0.02342 and 0.02572 and 0.02231 and 0.02096 at PARP2 [5] (PARP2, Nuc147/HPF1); 0.06673 and 0.08057 and 0.1117 at PARP2 [5] (PARP2, p18mer); 0.06627 and 0.04795 and 0.05623 and 0.05079 at PARP2 [5] (PARP2, p18mer/HPF1). Moreover, the On average is given as 5.7 per uM per sec on PARP2 [5] (PARP2, Nuc147); 2.3 per uM per sec at PARP2 [5] (PARP2, Nuc147/HPF1); 8.6 per uM per sec at PARP2 [5] (PARP2, p18mer); 5.5 per uM per sec at PARP2 [5] (PARP2, p18mer/HPF1). Further, the equilibrium dissociation constant (Kd) on PARP2 [5] (PARP2, Nuc165) came to 0.018 ± 0.0046 nM; at PARP2 [5] (PARP2, Nuc165/HPF1), 0.0249 ± 0.0047 nM; at PARP2 [5] (PARP2, p18mer), 0.0141 ± 0.0039 nM; on PARP2 [5] (PARP2, p18mer/HPF1) it was 0.0205 ± 0.0048 nM. The Off average at PARP2 [5] (PARP2, p18mer) turned out to be 0.44 per hr.
For the compound `NC(=O)c1ccc(I)c([N+](=O)[O-])c1` [iniparib], on PARP1 [1] (PARP1, 20-2500 nM), the “Inhibition of DNA release from PARP1” value is “not an inhibitor of PARP1; also recorded: does not have this effect”.
